Measurements as given in patent US20190046490A1, “METHODS OF TREATING LACTOSE INTOLERANCE” (Nogra Pharma Limited, priority 2016, published 2019).
Entries after “also recorded” stand apart in the source; their conditions may differ.

Experiments:
[1] = tested on: LCT gene; assay: Transcriptome microarray analysis of LCT mRNA expression in Caco-2 cells treated with PPARγ modulators; assay type: cell-based, human; settings: vs unstimulated cells
Description: (§1) Caco-2 (colonic adenocarcinoma) cells were grown in Dulbecco's Modified Eagle's Medium (DMEM, Invitrogen, Life Technologies, Cergy-Pontoise, France) supplemented with 20% foetal calf serum (FCS, Dutscher, Brumath, France), 1% penicillin-streptomycin (5 ml/l) (Invitrogen, Life technologies) and 1% non-essential amino acids (5 ml/l) (Invitrogen, Life technologies). All cell lines were cultured as confluent monolayers at 37° C. in a controlled, 5% CO2 atmosphere.
(§2) For cell stimulations, 1×10^6 cells per well were seeded in 6-well plates. Cells were serum deprived for 16 hours prior to stimulation in order to synchronize the cells. Cells were treated with GED (Nogra Pharma Ltd, Ireland), pioglitazone (1 μM, Sigma-Aldrich) or CLA (various concentrations, Sigma-Aldrich). When necessary, the DMSO vehicle (Sigma-Aldrich) was used as control. After 24 hours of stimulation, cells were washed three times with sterile PBS before RNA extraction. Cell stimulations were performed in 4 replicates for microarray analysis and in 3, 4 or 6 replicates for other stimulations.
(§3) Cells were lysed with lysis buffer (RA1, Macherey-Nagel) containing 1% β-mercaptoethanol. Total RNA was extracted with a Nucleospin RNA kit (Macherey-Nagel, Hoerdt, France). After RNAse inactivation, total RNA was cleaned of genomic DNA traces by DNAse treatment and eluted in RNAse-free, DEPC-water. The purity of the RNA was evaluated by UV spectroscopy on a Nanodrop system (Nyxor Biotech, Paris, France) from 220 to 350 nm. Before microarray experiments, RNAs were also profiled on an Agilent 2100 bioanalyzer. One μg of total RNA with a minimum concentration of 50 ng/μl was used in the microarray and qRT-PCR analysis.
Dual-colour gene expression microarrays were used to compare the cRNA from the samples. 44,000 genes were screened. The RNAs from the samples were first reverse-transcribed into cDNA (Affinity-Script RT, Agilent), which were then used as the substrate for the synthesis and amplification of cRNA by T7 RNA polymerase in the presence of cyanine 3-CTP for the CTL sample (green fluorescence) and cyanine 5-CTP for the PPAR-γ y modulator sample (red fluorescence). The two-labelled cRNAs were mixed, hybridized on the same array (G4851A Agilent 8×44K) and then scanned (with an Agilent G2505B scanner). Fluorescence was visualized after laser excitation and the relative intensities of the two fluorophores were expressed as a ratio, in order to yield the over- or under-expression status of each gene (using GeneSpring software (Agilent)). This analysis was performed for each PPAR-γ modulator.

[2] = tested on: Caco-2 cells; assay: Glucose uptake assay (2-DG6P) in Caco-2 cells; assay type: cell-based, human; settings: 1 μM, 24 h
Description: Glucose uptake was evaluated by using the glucose uptake colorimetric assay kit (Sigma-Aldrich) according to the manufacturer's instructions. Briefly, Caco-2 cells were seeded into a 96-well plate at a density of 30,000 cells per well. Cells were serum deprived for 16 hours prior to stimulation in order to synchronize the cells. Cells were treated with GED (1 mM) or pioglitazone (1 μM) for 24 h. Cells were then washed 3 times with PBS and were glucose-starved by incubating with 100 μl of KRPH buffer (Krebs-Ringer-Phosphate-HEPES (KRPH) Buffer—20 mM HEPES, 5 mM KH2PO4, 1 mM MgSO4, 1 mM CaCl2, 136 mM NaCl, and 4.7 mM KCl, pH 7.4) containing 2% BSA for 40 minutes. 10 μl of 2-deoxyglucose (2-DG; 10 mM) was then added and incubation was continued for 20 minutes. 2-DG is taken up by the cells and phosphorylated by hexokinase to 2-DG6P, which cannot be further metabolized and accumulates in cells. Following incubation, cells were washed 3 times with PBS and lysed with 80 μl of the extraction buffer provided. The amount of 2-DG6P (which is directly proportional to glucose uptake by the cells) was determined by a colorimetric detection assay according to the manufacturer's protocol.

[3] = tested on: LCT activity; assay: Lactase activity in Caco-2 cells (glucose oxidase method); assay type: cell-based, human
Description: (§4) Lactase activity was evaluated by using a glucose oxidase method (Glucose Assay Kit, Sigma). This lactase assay is based on the measurement of the amount of glucose produced following the action of lactase by incubating samples with a lactose buffer solution (0.056 mol/l lactose in a 0.1 mol/l Na-maleate buffer). For Caco-2 cells, lactase activity was determined directly from the cell monolayer. After extensive washing, the cell monolayer was incubated with lactose buffer for one hour at 37° C. The supernatant was recovered, 50 μl were diluted with 100 μl of glucose oxidase reagent and incubated at 37° C. for 1 hour. The reaction was stopped with 100 μl of H2SO4 and read by spectrophotometry at 450 nm. When lactase activity was determined from intestinal sample, tissue samples were first dounce-homogenized in 0.9% NaCl on crushed ice. These homogenates were then diluted in 0.9% NaCl ( 1/500) and 50 μl of dilution were incubated with lactose buffer and used to determine lactase activity. For each experiment, the background attributed to the remaining glucose in the samples was measured by incubating cells or cell extracts in lactose-free buffer.

[4] = tested on: LCT mRNA; assay: Quantitative PCR of LCT mRNA expression in Caco-2 cells; assay type: cell-based, human; settings: for LCT mRNA expression relative to control (qPCR): 24 hours, normalized to GAPDH
Description: as §1, §2, §3
(§5) Expression of genes of interest was quantified by quantitative PCR (qPCR) of corresponding reverse transcribed mRNA. One μg of total RNA was reverse-transcribed into cDNA using the High Capacity cDNA Archive kit (Applied Biosystems). Amplification was performed using an ABI PRISM 7000 sequence detection system (Applied Biosystem) using Power SYBR® Green PCR master Mix (Applied Biosystem). Primer pairs for each human transcript were chosen with qPrimer depot software (at primerdepot.nci.nih.gov.). Quantification of qPCR signals was performed using ΔCt relative quantification method using GAPDH as a reference gene for human and rat samples and β-Actin for mouse samples. Values were represented in terms of relative quantity of mRNA level variation or fold increase compared to control conditions.

[5] = tested on: LCT; assay: LCT mRNA and LCT activity in duodenum and jejunum of rats after 5 days oral gavage; assay type: in vivo, Sprague Dawley rats; settings: oral gavage 5 days, GED 30 mg/kg/day, CLA 200 mg/kg/day
Description: as §5, §4
(§6) To determine whether CLA induces LCT expression and activity in vivo, Sprague Dawley rats were fed a control diet and administered either carboxymethyl cellulose (CMC; 0.5%), CLA, or GED for 5 days, after which levels of PPARγ mRNA, LCT mRNA, and LCT activity were measured. CLA was administered at 200 mg/kg/day by oral gavage, and GED was administered at 30 mg/kg/day by oral gavage (FIG. 21A).

[6] = tested on: LCT in PPARγ knock-down Caco-2 cells; assay: LCT expression and activity in PPARγ knock-down Caco-2 cells (ShPPAR); assay type: cell-based, human; settings: ShPPAR vs ShLuc Caco-2 cells, 250-1000 μM
Description: as §5
Lactase activity was evaluated by using a glucose oxidase method (Glucose Assay Kit, Sigma). […] For Caco-2 cells, lactase activity was determined directly from the cell monolayer. […] The reaction was stopped with 100 μl of H2SO4 and read by spectrophotometry at 450 nm. When lactase activity was determined from intestinal sample, tissue samples were first dounce-homogenized in 0.9% NaCl on crushed ice. […] For each experiment, the background attributed to the remaining glucose in the samples was measured by incubating cells or cell extracts in lactose-free buffer. […]

[7] = tested on: PPARγ mRNA; assay: PPARγ mRNA in duodenum and jejunum of rats after 5 days oral gavage; assay type: in vivo, Sprague Dawley rats; settings: 200 mg/kg/day oral gavage 5 days
Description: as §5, §6

CCc1ccc(CCOc2ccc(CC3SC(=O)NC3=O)cc2)nc1 (stereo not drawn) [Pioglitazone, pioglitazone]
Fold Lactase RNA ([1]; 1 μM): 17.9 fold | Fold Lactase RNA ([1]; 1 μM, listed as Pio): 17.93 fold | glucose uptake of Caco-2 cells [2]: did not significantly alter | LCT activity compared to untreated cells ([3]; Caco-2 cells, 1 μM, vs DMSO): > 2 fold

O=C(Nc1ccccc1)c1cc([N+](=O)[O-])ccc1Cl [GW9662]
ability of GED to induce increased LCT mRNA expression in the presence of the antagonist ([4]; GED plus GW9662): markedly reduced

CCCCC/C=C\C=C\CCCCCCCCC(=O)O [CLA, trans-10, cis-12 conjugated linoleic acid (CLA) isomer]
LCT mRNA expression relative to control (qPCR) ([4]; 1 mM): as efficiently as 1 mM GED | LCT activity in duodenal tissue compared to CMC control [5]: significant increase | LCT mRNA expression in duodenal tissue relative to CMC control [5]: significant increase | LCT mRNA expression in jejunal tissue relative to CMC control [5]: not | CLA-dependent induction of LCT activity in PPARγ knock-down cells [6]: strongly compromised | CLA-dependent induction of LCT expression in PPARγ knock-down cells [6]: strongly compromised | PPARγ mRNA expression levels in duodenum relative to CMC control [7]: significant increase | PPARγ mRNA expression levels in jejunum relative to CMC control [7]: significant increase | increase in LCT activity over control levels, compared to 1 mM GED ([3]; Caco-2 cells, 1 mM): 2 fold | LCT activity in Caco-2 cells ([3]; concentrations of 100 mM or more): significantly increased

Nc1ccc(O)c(C(=O)O)c1 [5ASA, 5-aminosalicylic acid]
Fold Lactase RNA ([1]; 30 mM): 8.7 fold | LCT mRNA expression relative to control (qPCR) ([4]; 30 mM): Significant increases; also recorded: induction | LCT activity relative to control cells ([3]; Caco-2 cells, 30 mM): not
